# Molecular target: P. falciparum apicoplast DNA polymerase (Pf-apPOL) (Plasmodium falciparum, UniProt Q8ILY1)
# Test: Fluorescence-based high-throughput DNA polymerase assay (molecular beacon), primary screen and dose-response
# Format: biochemical
# Conditions: for DNA Pol: 90 min, 10 µM; for % inhibition apPOL 180' 2.5 / % inhibition apPOL 180' 5 / % inhibition apPOL 180' 10 / % inhibition apPOL 180' 20 / % inhibition apPOL 180' 40 / % inhibition apPOL 180' 80: read at 180'
# Method in brief: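 Single-point screening used 10 µM compound with 20 nM polymerase, 20 nM hairpin substrate and 6 µM dNTPs for 90 min at 25 °C. Confirmatory titrations (2.5–80 µM) followed fluorescence at three times, and IC50 was derived from a fit including a cooperativity term n.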
# [1] = first dose-response, concentration 2.5
# [2] = first dose-response, concentration 10
# [3] = first dose-response, concentration 20
# Chain of P. falciparum apicoplast DNA polymerase (Pf-apPOL) (Q8ILY1 entry or part of it): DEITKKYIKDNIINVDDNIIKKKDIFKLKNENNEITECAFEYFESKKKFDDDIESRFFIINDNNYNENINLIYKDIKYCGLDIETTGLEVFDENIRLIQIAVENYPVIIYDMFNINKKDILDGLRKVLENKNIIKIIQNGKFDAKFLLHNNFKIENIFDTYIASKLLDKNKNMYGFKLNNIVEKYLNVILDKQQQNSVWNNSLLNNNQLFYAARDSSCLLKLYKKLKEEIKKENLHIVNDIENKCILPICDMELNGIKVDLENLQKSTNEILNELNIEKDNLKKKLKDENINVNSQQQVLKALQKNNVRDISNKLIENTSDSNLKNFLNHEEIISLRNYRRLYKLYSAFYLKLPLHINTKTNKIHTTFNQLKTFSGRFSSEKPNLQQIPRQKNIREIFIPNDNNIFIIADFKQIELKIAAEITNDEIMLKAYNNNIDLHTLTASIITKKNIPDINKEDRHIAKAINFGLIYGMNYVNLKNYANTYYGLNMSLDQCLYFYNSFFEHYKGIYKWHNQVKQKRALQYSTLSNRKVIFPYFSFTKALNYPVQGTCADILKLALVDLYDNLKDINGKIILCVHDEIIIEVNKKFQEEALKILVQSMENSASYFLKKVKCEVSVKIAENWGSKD
compound,measurement,setting,value
"COc1ccc(C2CC(c3ccc(Cl)cc3Cl)Nc3nc(N)nn32)cc1OC (centres unmarked) [Molecule 43, COc1cc(ccc1OC)C1CC(Nc2n1nc(n2)N)c1ccc(cc1Cl)Cl]",DNA Pol,"186 hits, DNA Pol (screen value), unit not given",50
same,DNA Pol,"'DNA Pol' (screen value), unit not given",50
same,% inhibition Apo pol 10' 2.5,"DRC-1, read at 10', concentration 2.5",35%
same,% inhibition Apo pol 10' 5,"DRC-1, read at 10', concentration 5",39%
same,% inhibition Apo pol 10' 10,"DRC-1, read at 10', concentration 10",50%
same,% inhibition Apo pol 10' 20,"DRC-1, read at 10', concentration 20",56%
same,% inhibition Apo pol 10' 40,"DRC-1, read at 10', concentration 40",63%
same,% inhibition Apo pol 10' 80,"DRC-1, read at 10', concentration 80",71%
same,% inhibition Apol 90' 2.5,"DRC-1, read at 90', concentration 2.5",28%
same,% inhibition Apol 90' 5,"DRC-1, read at 90', concentration 5",32%
same,% inhibition Apol 90' 10,"DRC-1, read at 90', concentration 10",43%
same,% inhibition Apol 90' 20,"DRC-1, read at 90', concentration 20",51%
same,% inhibition Apol 90' 40,"DRC-1, read at 90', concentration 40",58%
same,% inhibition Apol 90' 80,"DRC-1, read at 90', concentration 80",67%
same,% inhibition apPOL 180' 2.5,"DRC-1, concentration 2.5",22%
same,% inhibition apPOL 180' 5,"DRC-1, concentration 5",25%
same,% inhibition apPOL 180' 10,"DRC-1, concentration 10",35%
same,% inhibition apPOL 180' 20,"DRC-1, concentration 20",43%
same,% inhibition apPOL 180' 40,"DRC-1, concentration 40",52%
same,% inhibition apPOL 180' 80,"DRC-1, concentration 80",62%
same,% inhibition Apo pol 5',"DRC-2, concentration 5",22%
same,% inhibition Apo pol 5',"DRC-2, concentration 10",28%
same,% inhibition Apo pol 5',"DRC-2, concentration 20",30%
same,% inhibition Apo pol 5',"DRC-2, concentration 40",39%
same,% inhibition Apol 40',"DRC-2, concentration 2.5",26%
same,% inhibition Apol 40',"DRC-2, concentration 5",29%
same,% inhibition Apol 40',"DRC-2, concentration 20",42%
same,% inhibition Apol 40',"DRC-2, concentration 80",51%
same,% inhibition ApPOL 90',"DRC-2, concentration 2.5",26%
same,% inhibition ApPOL 90',"DRC-2, concentration 5",29%
same,% inhibition ApPOL 90',"DRC-2, concentration 20",42%
same,% inhibition ApPOL 90',"DRC-2, concentration 40",50%
same,% inhibition ApPOL 90',"DRC-2, concentration 80",52%
same,% inhibition apPOL 180',"DRC-2, concentration 10",30%
same,% inhibition apPOL 180',"DRC-2, concentration 20",35%
same,% inhibition apPOL 180',"DRC-2, concentration 40",43%
same,% inhibition Apo pol 5' 2.5,"DRC-2, read at 5', concentration 2.5",23%
same,% inhibition Apo pol 5' 5,"DRC-2, read at 5', concentration 5",22%
same,% inhibition Apo pol 5' 10,"DRC-2, read at 5', concentration 10",28%
same,% inhibition Apo pol 5' 20,"DRC-2, read at 5', concentration 20",30%
same,% inhibition Apo pol 5' 40,"DRC-2, read at 5', concentration 40",39%
same,% inhibition Apo pol 5' 80,"DRC-2, read at 5', concentration 80",38%
same,% inhibition Apol 40' 2.5,"DRC-2, read at 40', concentration 2.5",26%
same,% inhibition Apol 40' 5,"DRC-2, read at 40', concentration 5",29%
same,% inhibition Apol 40' 10,"DRC-2, read at 40', concentration 10",36%
same,% inhibition Apol 40' 20,"DRC-2, read at 40', concentration 20",42%
same,% inhibition Apol 40' 40,"DRC-2, read at 40', concentration 40",49%
same,% inhibition Apol 40' 80,"DRC-2, read at 40', concentration 80",51%
same,% inhibition ApPOL 90' 2.5,"DRC-2, read at 90', concentration 2.5",26%
same,% inhibition ApPOL 90' 5,"DRC-2, read at 90', concentration 5",29%
same,% inhibition ApPOL 90' 10,"DRC-2, read at 90', concentration 10",37%
same,% inhibition ApPOL 90' 20,"DRC-2, read at 90', concentration 20",42%
same,% inhibition ApPOL 90' 40,"DRC-2, read at 90', concentration 40",50%
same,% inhibition ApPOL 90' 80,"DRC-2, read at 90', concentration 80",52%
same,% inhibition apPOL 180' 2.5,"DRC-2, concentration 2.5",18%
same,% inhibition apPOL 180' 5,"DRC-2, concentration 5",21%
same,% inhibition apPOL 180' 10,"DRC-2, concentration 10",30%
same,% inhibition apPOL 180' 20,"DRC-2, concentration 20",35%
same,% inhibition apPOL 180' 40,"DRC-2, concentration 40",43%
same,% inhibition apPOL 180' 80,"DRC-2, concentration 80",46%
same,% inhibition Apo pol 10',[1],35%
same,% inhibition Apo pol 10',"first dose-response, concentration 5",39%
same,% inhibition Apo pol 10',[2],50%
same,% inhibition Apol 90',[1],28%
same,% inhibition Apol 90',[2],43%
same,% inhibition Apol 90',[3],51%
same,% inhibition apPOL 180',[1],22%
same,% inhibition apPOL 180',[2],35%
same,% inhibition apPOL 180',[3],43%
same,% inhibition apPOL 180',"first dose-response, concentration 40",52%
"O=C(Cc1cc(=O)[nH]c(SCc2ccccc2)n1)Nc1ccc2c(c1)OCO2 [Molecule 46, O=C(Cc1cc(=O)[nH]c(n1)SCc1ccccc1)Nc1ccc2c(c1)OCO2]",DNA Pol,"""DNA Pol"" of the 186 hits list (screen value)",35
same,% inhibition Apo pol 10',"DRC-1, concentration 2.5",-0.9773%
same,% inhibition Apo pol 10',"DRC-1, concentration 5",2.643%
same,% inhibition Apo pol 10',"DRC-1, concentration 10",32.2663%
same,% inhibition Apo pol 10',"DRC-1, concentration 20",58.1636%
same,% inhibition Apo pol 10',"DRC-1, concentration 40",83.7049%
same,% inhibition Apo pol 10',"DRC-1, concentration 80",86.7652%
same,% inhibition Apol 90',"DRC-1, concentration 2.5",-4.834%
same,% inhibition Apol 90',"DRC-1, concentration 5",-3.621%
same,% inhibition Apol 90',"DRC-1, concentration 10",17.8668%
same,% inhibition Apol 90',"DRC-1, concentration 20",43.05%
same,% inhibition Apol 90',"DRC-1, concentration 40",73.6983%
same,% inhibition Apol 90',"DRC-1, concentration 80",82.3218%
same,% inhibition apPOL 180',"DRC-1, concentration 2.5",-11.1217%
same,% inhibition apPOL 180',"DRC-1, concentration 5",-9.027%
same,% inhibition apPOL 180',"DRC-1, concentration 10",5.286%
same,% inhibition apPOL 180',"DRC-1, concentration 20",25.3173%
same,% inhibition apPOL 180',"DRC-1, concentration 40",61.8193%
same,% inhibition apPOL 180',"DRC-1, concentration 80",77.2818%
same,% inhibition Apo pol 5',"DRC-2, concentration 2.5",-0.743%
same,% inhibition Apo pol 5',"DRC-2, concentration 5",-0.197%
same,% inhibition Apo pol 5',"DRC-2, concentration 10",23%
same,% inhibition Apo pol 5',"DRC-2, concentration 20",29%
same,% inhibition Apo pol 5',"DRC-2, concentration 40",27%
same,% inhibition Apo pol 5',"DRC-2, concentration 80",20%
same,% inhibition Apol 40',"DRC-2, concentration 2.5",-1%
same,% inhibition Apol 40',"DRC-2, concentration 5",0.92%
same,% inhibition Apol 40',"DRC-2, concentration 10",30%
same,% inhibition Apol 40',"DRC-2, concentration 20",47%
same,% inhibition Apol 40',"DRC-2, concentration 40",55%
same,% inhibition Apol 40',"DRC-2, concentration 80",53%
same,% inhibition ApPOL 90',"DRC-2, concentration 2.5",-1%
same,% inhibition ApPOL 90',"DRC-2, concentration 5",-0.186%
same,% inhibition ApPOL 90',"DRC-2, concentration 10",27%
same,% inhibition ApPOL 90',"DRC-2, concentration 20",49%
same,% inhibition ApPOL 90',"DRC-2, concentration 40",60%
same,% inhibition ApPOL 90',"DRC-2, concentration 80",61%
same,% inhibition apPOL 180',"DRC-2, concentration 2.5",-5.33%
same,% inhibition apPOL 180',"DRC-2, concentration 5",-9%
same,% inhibition apPOL 180',"DRC-2, concentration 10",17%
same,% inhibition apPOL 180',"DRC-2, concentration 20",41%
same,% inhibition apPOL 180',"DRC-2, concentration 40",62%
same,% inhibition apPOL 180',"DRC-2, concentration 80",67%
same,DNA Pol,"primary screen value, DNA Pol",35
"Cc1cccc2c(C(=O)NC(C)C)cc(N(C)C)nc12 [Molecule 47, CC(NC(=O)c1cc(nc2c1cccc2C)N(C)C)C]",DNA Pol,'DNA Pol' of the 186 hits list (primary screen value),22
same,DNA Pol,DNA Pol (primary screen value),22
same,% inhibition Apo pol 10',"DRC-1, concentration 2.5",6.184%
same,% inhibition Apo pol 10',"DRC-1, concentration 5",4.255%
same,% inhibition Apo pol 10',"DRC-1, concentration 10",30.9701%
same,% inhibition Apo pol 10',"DRC-1, concentration 20",57.6029%
same,% inhibition Apo pol 10',"DRC-1, concentration 40",72.1055%
same,% inhibition Apo pol 10',"DRC-1, concentration 80",75.9231%
same,% inhibition Apol 90',"DRC-1, concentration 2.5",2.22%
same,% inhibition Apol 90',"DRC-1, concentration 5",0.7023%
same,% inhibition Apol 90',"DRC-1, concentration 10",20.6995%
same,% inhibition Apol 90',"DRC-1, concentration 20",44.2849%
same,% inhibition Apol 90',"DRC-1, concentration 40",67.2168%
same,% inhibition Apol 90',"DRC-1, concentration 80",75.4674%
same,% inhibition apPOL 180',"DRC-1, concentration 2.5",2.5191%
same,% inhibition apPOL 180',"DRC-1, concentration 5",-0.7995%
same,% inhibition apPOL 180',"DRC-1, concentration 10",11.775%
same,% inhibition apPOL 180',"DRC-1, concentration 20",29.3384%
same,% inhibition apPOL 180',"DRC-1, concentration 40",56.4011%
same,% inhibition apPOL 180',"DRC-1, concentration 80",69.9021%
same,% inhibition Apo pol 5',"DRC-2, concentration 2.5",7%
same,% inhibition Apo pol 5',"DRC-2, concentration 5",13%
same,% inhibition Apo pol 5',"DRC-2, concentration 10",21%
same,% inhibition Apo pol 5',"DRC-2, concentration 20",37%
same,% inhibition Apo pol 5',"DRC-2, concentration 40",47%
same,% inhibition Apo pol 5',"DRC-2, concentration 80",35%
same,% inhibition Apol 40',"DRC-2, concentration 2.5",6.48%
same,% inhibition Apol 40',"DRC-2, concentration 5",14%
same,% inhibition Apol 40',"DRC-2, concentration 10",25%
same,% inhibition Apol 40',"DRC-2, concentration 20",43%
same,% inhibition Apol 40',"DRC-2, concentration 40",62%
same,% inhibition Apol 40',"DRC-2, concentration 80",58%
same,% inhibition ApPOL 90',"DRC-2, concentration 2.5",6%
same,% inhibition ApPOL 90',"DRC-2, concentration 5",11%
same,% inhibition ApPOL 90',"DRC-2, concentration 10",21%
same,% inhibition ApPOL 90',"DRC-2, concentration 20",41%
same,% inhibition ApPOL 90',"DRC-2, concentration 40",64%
same,% inhibition ApPOL 90',"DRC-2, concentration 80",63%
same,% inhibition apPOL 180',"DRC-2, concentration 2.5",1.25%
same,% inhibition apPOL 180',"DRC-2, concentration 5",6.35%
same,% inhibition apPOL 180',"DRC-2, concentration 10",14%
same,% inhibition apPOL 180',"DRC-2, concentration 20",31%
same,% inhibition apPOL 180',"DRC-2, concentration 40",60%
same,% inhibition apPOL 180',"DRC-2, concentration 80",66%
